Values after ≈ are worked out from the molar mass of the structure shown.
Experiments:
Type in all cases: functional
Staphylococcus aureus [1] = test: Antibacterial activity against methicillin-sensitive Staphylococcus aureus isolate SDS15016 after 24 hrs by broth microdilution method; settings: isolate SDS15016, 24 h
Candida albicans = test: Antifungal activity against clinical isolates of Candida albicans SC5314 after 48 hrs by broth microdilution method; settings: SC5314, 48 h
Staphylococcus aureus [2] = test: Antibacterial activity against methicillin-resistant Staphylococcus aureus isolate SDSM1503 after 24 hrs by broth microdilution method; settings: isolate SDSM1503, 24 h

| SMILES | MIC (Staphylococcus aureus [1]) [µg/mL] | MIC80 (Candida albicans) [µg/mL] | MIC (Staphylococcus aureus [2]) [µg/mL] |
| --- | --- | --- | --- |
| COc1cc2ccc1-c1c(O)cccc1CCc1ccc(cc1)Oc1cc(ccc1O)CC2 | 2 (≈ 4.56 µM) | > 64 | 8 (≈ 18.2 µM) |
| Cc1onc(-c2ccccc2)c1C(=O)N[C@@H]1C(=O)N2[C@@H]1SC(C)(C)[C@@H]2C(=O)[O-].[Na+] | 8 | – | > 128 |
| Cc1onc(-c2ccccc2Cl)c1C(=O)N[C@@H]1C(=O)N2[C@@H]1SC(C)(C)[C@@H]2C(=O)O [CLOXACILLIN] | 0.5 (≈ 1.15 µM) | – | > 128 |
| Oc1cc2ccc1-c1c(ccc(Br)c1O)CCc1ccc(cc1)Oc1cc(cc(Br)c1O)CC2 | 8 (≈ 13.7 µM) | > 64 | 16 (≈ 27.5 µM) |
| Oc1cc2ccc1Oc1cc(ccc1O)CCc1ccc(c(O)c1)-c1c(O)cccc1CC2 | 2 (≈ 4.54 µM) | > 64 | 4 (≈ 9.08 µM) |
| Oc1cc2ccc1Oc1cc(cc(O)c1O)CCc1ccc(c(O)c1)-c1c(O)cccc1CC2 | 8 (≈ 17.5 µM) | > 64 | 16 (≈ 35 µM) |
| Oc1ccc2cc1Oc1ccc(cc1)CCc1cccc(O)c1-c1ccc(c(Br)c1O)CC2 | 2 (≈ 3.97 µM) | > 64 | 8 (≈ 15.9 µM) |
| Oc1ccc2cc1Oc1ccc(cc1)CCc1ccc(Br)c(O)c1-c1cc(Br)c(cc1O)CC2 | 2 (≈ 3.43 µM) | > 64 | 4 (≈ 6.87 µM) |
| Oc1ccc2cc1Oc1ccc(cc1)CCc1c(Br)ccc(O)c1-c1ccc(c(Br)c1O)CC2 | 2 (≈ 3.43 µM) | 8 (≈ 13.7 µM) | 4 (≈ 6.87 µM) |
| Oc1cc2ccc1-c1c(O)cccc1CCc1ccc(cc1)Oc1cc(cc(O)c1O)CC2 | 2 (≈ 4.54 µM) | > 64 | 8 (≈ 18.2 µM) |
| Oc1ccc2cc1Oc1ccc(cc1)CCc1cccc(O)c1-c1cc(Br)c(cc1O)CC2 | 2 (≈ 3.97 µM) | > 64 | 4 (≈ 7.95 µM) |
| COc1cccc2c1-c1ccc(cc1O)CCc1ccc(O)c(c1)Oc1ccc(cc1)CC2 | 2 (≈ 4.56 µM) | > 64 | 4 (≈ 9.12 µM) |
| Oc1ccc2cc1Oc1ccc(cc1)CCc1ccc(Br)c(O)c1-c1ccc(c(Br)c1O)CC2 | 4 (≈ 6.87 µM) | > 64 | 16 (≈ 27.5 µM) |
| CC(C)(O/N=C(\C(=O)N[C@@H]1C(=O)N2C(C(=O)[O-])=C(C[n+]3ccccc3)CS[C@H]12)c1csc(N)n1)C(=O)O [CEFTAZIDIME] | 4 (≈ 7.32 µM) | – | > 128 |
| CO/N=C(\C(=O)N[C@@H]1C(=O)N2C(C(=O)O)=C(COC(C)=O)CS[C@H]12)c1csc(N)n1 [CEFOTAXIME] | 4 (≈ 8.78 µM) | – | > 128 |
| OC(Cn1cncn1)(Cn1cncn1)c1ccc(F)cc1F [FLUCONAZOLE] | – | 2 (≈ 6.53 µM) | – |
| Oc1ccc2cc1Oc1ccc(cc1)CCc1c(Br)ccc(O)c1-c1cc(Br)c(cc1O)CC2 | 2 (≈ 3.43 µM) | 8 (≈ 13.7 µM) | 4 (≈ 6.87 µM) |

Reference: ChEMBL document CHEMBL3817789 (2016)
